According to ChEMBL document CHEMBL3232796, “Synthesis and carbonic anhydrase I, II, IX and XII inhibition studies of 4-N,N-disubstituted sulfanilamides incorporating 4,4,4-trifluoro-3-oxo-but-1-enyl, phenacylthiourea and imidazol-2(3H)-one/thione moieties” (Bioorg Med Chem Lett, 2014):

Biological target: Carbonic anhydrase 9 (Homo sapiens, UniProt Q16790)
Description: Inhibition of human recombinant transmembrane tumor associated carbonic anhydrase-9 incubated for 15 mins prior to testing by stopped-flow CO2 hydrase assay

Ki [nM] | SMILES
9.5 | NS(=O)(=O)c1ccc(N(/C=C/C(=O)C(F)(F)F)CC(=O)c2ccccc2)cc1
17 | NS(=O)(=O)c1ccc(N(/C=C/C(=O)C(F)(F)F)CC(=O)c2ccc(Cl)cc2)cc1
25 | NS(=O)(=O)c1ccc(-n2cc(-c3ccc(F)cc3)[nH]c2=O)cc1
37 | NS(=O)(=O)c1ccc(-n2cc(-c3ccc(F)cc3)[nH]c2=S)cc1
25 | CCOC(=O)NC(=S)N(CC(=O)c1ccc(Cl)cc1)c1ccc(S(N)(=O)=O)cc1
33 | NS(=O)(=O)c1ccc(N(/C=C/C(=O)C(F)(F)F)Cc2ccc(Cl)cc2)cc1
13 | NS(=O)(=O)c1ccc(-n2cc(-c3ccccc3)[nH]c2=S)cc1

SMILES | Ki [nM]
NS(=O)(=O)c1ccc(-n2cc(-c3ccccc3)[nH]c2=O)cc1 | 34
NS(=O)(=O)c1ccc(N(/C=C/C(=O)C(F)(F)F)CC(=O)c2ccc(F)cc2)cc1 | 13
NS(=O)(=O)c1ccc(N(/C=C/C(=O)C(F)(F)F)Cc2ccccc2)cc1 | 39
Cc1ccc(C(=O)CN(/C=C/C(=O)C(F)(F)F)c2ccc(S(N)(=O)=O)cc2)cc1 | 18
